Source: ChEMBL document CHEMBL1139449, “Synthesis and inhibitory activity against COX-2 catalyzed prostaglandin production of chrysin derivatives” (Bioorg Med Chem Lett, 2004)

Tested on: RAW264.7
Experiment: Evaluated for inhibition of COX-2 catalyzed PGE-2 production from LPS induced RAW 264.7 cells
Format: functional, cell-based
Conditions: Mus musculus

Row | Compound | IC50 [nM]
1 | COc1c(O)cc(O)c2c(=O)cc(-c3ccccc3)oc12 [WOGONIN] | 1080
2 | COc1ccc2c(=O)cc(-c3ccc(Cl)cc3)oc2c1 | 500
3 | O=c1cc(-c2ccccc2)oc2ccccc12 [FLAVONE] | 500
4 | CS(=O)(=O)Nc1ccc([N+](=O)[O-])cc1OC1CCCCC1 [NS-398] | 500

Tested on: RAW264.7
Experiment: Evaluated for inhibition of COX-2 catalyzed PGE-2 production from LPS induced RAW 264.7 cells; Range: 0.1-0.5 uM
Format: functional, cell-based
Conditions: Mus musculus

Row | Compound | IC50 [nM]
5 | COc1ccc2c(=O)cc(-c3ccc(Cl)c(Cl)c3)oc2c1 | < 500
6 | O=c1cc(-c2ccc(Cl)c(Cl)c2)oc2cc(O)ccc12 | < 500
7 | COc1cccc2oc(-c3ccc(Cl)c(Cl)c3)cc(=O)c12 | < 500
